Reference: the NIST ThermoML archive (doi:10.1021/je060411g)

Experiment: molar heat capacity at constant pressure
Details: 101.33 kPa

CCC(O)CC [3-pentanol]
Details	molar heat capacity at constant pressure [J/K/mol]
152.99 K, Liquid	150.52
154.56 K, Crystal	105.87
155.94 K, Liquid	150.86
156.51 K, Crystal	107.42
158.46 K, Crystal	108.86
158.9 K, Liquid	151.16
160 K, Crystal	118.8
160.42 K, Crystal	110.34
161.85 K, Liquid	151.55
162.38 K, Crystal	111.71
164.37 K, Crystal	103.35
164.81 K, Liquid	152.15
166.37 K, Crystal	115.34
167.78 K, Liquid	153.56
168.31 K, Crystal	115.72
170 K, Crystal	110.3
170.23 K, Crystal	116.98
170.76 K, Liquid	159.22
172.17 K, Crystal	118.28
174.1 K, Crystal	119.45
176.01 K, Crystal	120.74
177.92 K, Crystal	121.98
179.81 K, Crystal	123.05
180 K, Crystal	123.2
181.69 K, Crystal	124.1
183.56 K, Crystal	125.1
185.42 K, Crystal	126.2
187.27 K, Crystal	127.45
189.1 K, Crystal	129.05
190 K, Crystal	129.8
190.93 K, Crystal	130.67
191.18 K, Crystal	146.69
192.74 K, Crystal	132.33
193.08 K, Crystal	133.23
194.53 K, Crystal	134.71
194.98 K, Crystal	136.27
196.31 K, Crystal	137.6
197.93 K, Crystal	143.45
198.06 K, Crystal	141.76
200 K, Crystal	155.5
206.59 K, Liquid	163.08
206.86 K, Liquid	162.81
208.54 K, Liquid	163.45
209.46 K, Liquid	164.31
210 K, Liquid	164.2
210.2 K, Liquid	164.21
211.87 K, Liquid	164.95
212.32 K, Liquid	165.57
213.52 K, Liquid	165.62
215.16 K, Liquid	167.02
215.17 K, Liquid	166.57
216.82 K, Liquid	167.31
217.99 K, Liquid	168.45
218.46 K, Liquid	168.22
220 K, Liquid	169.1
220.1 K, Liquid	169.14
220.8 K, Liquid	170.05
221.73 K, Liquid	170.07
223.36 K, Liquid	170.87
223.59 K, Liquid	171.64
224.98 K, Liquid	171.87
226.37 K, Liquid	173.5
226.59 K, Liquid	172.95
228.2 K, Liquid	173.95
229.13 K, Liquid	175.38
229.81 K, Liquid	174.99
230 K, Liquid	175.1
231.41 K, Liquid	176.24
231.88 K, Liquid	177.23
233 K, Liquid	177.29
234.59 K, Liquid	178.66
234.61 K, Liquid	179.15
236.17 K, Liquid	179.8
237.32 K, Liquid	181.22
237.75 K, Liquid	180.73
239.32 K, Liquid	182.03
240 K, Liquid	183.5
240.01 K, Liquid	183.55
240.89 K, Liquid	183.27
242.45 K, Liquid	184.57
242.69 K, Liquid	185.78
244 K, Liquid	185.93
245.34 K, Liquid	188.15
245.55 K, Liquid	187.34
247.09 K, Liquid	188.71
247.98 K, Liquid	190.62
248.63 K, Liquid	190.19
250 K, Liquid	191.4
250.16 K, Liquid	191.69
250.61 K, Liquid	193.22
251.68 K, Liquid	193.3
253.2 K, Liquid	194.61
253.21 K, Liquid	195.73
254.72 K, Liquid	195.45
255.8 K, Liquid	198.08
256.23 K, Liquid	197.32
257.73 K, Liquid	198.94
258.37 K, Liquid	201.08
259.23 K, Liquid	200.52
260 K, Liquid	201
260.72 K, Liquid	202.41
260.93 K, Liquid	204.02
262.21 K, Liquid	203.99
263.46 K, Liquid	207.15
263.69 K, Liquid	205.59
265.16 K, Liquid	207.37
265.98 K, Liquid	210.2
266.63 K, Liquid	209.14
268.09 K, Liquid	210.93
268.47 K, Liquid	213.3
269.54 K, Liquid	212.66
270 K, Liquid	213.6
270.95 K, Liquid	216.47
270.99 K, Liquid	214.5
272.44 K, Liquid	216.21
273.41 K, Liquid	219.31
273.87 K, Liquid	218
275.3 K, Liquid	219.86
275.85 K, Liquid	222.84
276.73 K, Liquid	221.67
278.15 K, Liquid	223.45
278.28 K, Liquid	226.05
279.56 K, Liquid	225.24
280 K, Liquid	227
280.68 K, Liquid	229.31
280.97 K, Liquid	227.16
282.37 K, Liquid	228.87
283.07 K, Liquid	232.43
283.76 K, Liquid	230.71
285.15 K, Liquid	232.47
285.44 K, Liquid	235.64
286.54 K, Liquid	234.44
287.8 K, Liquid	239.08
287.92 K, Liquid	236.08
289.29 K, Liquid	237.78
290 K, Liquid	238.7
290.66 K, Liquid	239.56
292.02 K, Liquid	241.24
293.38 K, Liquid	242.8
294.74 K, Liquid	244.64
296.09 K, Liquid	246.1
297.43 K, Liquid	247.9
298.15 K, Liquid	248.7
298.77 K, Liquid	249.27
300 K, Liquid	250.7
300.11 K, Liquid	250.87
301.44 K, Liquid	252.15
302.77 K, Liquid	254
304.09 K, Liquid	255.2
305.41 K, Liquid	256.63
306.73 K, Liquid	258.11
308.04 K, Liquid	259.35
309.35 K, Liquid	260.74
